In ChEMBL document CHEMBL4507280 (2021):
Calls of active or inactive are those of the source. No cut-off for these calls is given here.

How the values were obtained:
[1] = molecular target: Mitogen-activated protein kinase kinase kinase kinase 1 (Homo sapiens) (UniProt Q92918); conditions: Compound concentration 1000.0 nM
[2] = molecular target: Phosphorylase b kinase gamma catalytic chain, skeletal muscle/heart isoform (Homo sapiens) (UniProt Q16816); conditions: Compound concentration 1000.0 nM
[3] = test system: Tyrosine-protein kinase ABL1 (Homo sapiens), P00519 [F317L]; conditions: Compound concentration 1000.0 nM
[4] = molecular target: ALK tyrosine kinase receptor (Homo sapiens) (UniProt Q9UM73); conditions: Compound concentration 1000.0 nM
[5] = molecular target: Serine/threonine-protein kinase MRCK beta (Homo sapiens) (UniProt Q9Y5S2); conditions: Compound concentration 1000.0 nM
[6] = molecular target: 5-hydroxytryptamine receptor 1D (Homo sapiens) (UniProt P28221); conditions: Compound concentration 10.0 uM
[7] = molecular target: Glycogen synthase kinase-3 beta (Homo sapiens) (UniProt P49841); conditions: Compound concentration 1000.0 nM
[8] = molecular target: Dual serine/threonine and tyrosine protein kinase (Homo sapiens) (UniProt Q6XUX3); conditions: Compound concentration 1000.0 nM
[9] = molecular target: Microtubule-associated serine/threonine-protein kinase 1 (Homo sapiens) (UniProt Q9Y2H9); conditions: Compound concentration 1000.0 nM
[10] = molecular target: GABA-A receptor; anion channel (Rattus norvegicus) (UniProt O09028+P15431+P18506+P18508+P19969+P20236+P23574+P23576+P28471+P28473+P30191+P62813+P63079+P63138+Q91ZM7+Q9ES14); conditions: Compound concentration 10.0 uM
[11] = molecular target: Serine/threonine-protein kinase tousled-like 2 (Homo sapiens) (UniProt Q86UE8); conditions: Compound concentration 1000.0 nM
[12] = molecular target: Beta-adrenergic receptor kinase 1 (Homo sapiens) (UniProt P25098); conditions: Compound concentration 1000.0 nM
[13] = molecular target: Receptor-interacting serine/threonine-protein kinase 4 (Homo sapiens) (UniProt P57078); conditions: Compound concentration 1000.0 nM
[14] = molecular target: Serine/threonine-protein kinase 38-like (Homo sapiens) (UniProt Q9Y2H1); conditions: Compound concentration 1000.0 nM
[15] = molecular target: T1, Sigma intracellular receptor 2 (Homo sapiens, UniProt Q5BJF2); conditions: Compound concentration 10.0 uM
[16] = test system: Phosphatidylinositol 4,5-bisphosphate 3-kinase catalytic subunit alpha isoform (Homo sapiens), P42336 [Q546K]; conditions: Compound concentration 1000.0 nM
Fatty acid synthase [17] = molecular target: T2, Fatty acid synthase (Homo sapiens, UniProt P49327); assay: Human FAS enzyme assay
[18] = molecular target: Cyclin-dependent kinase 2 (Homo sapiens) (UniProt P24941); conditions: Compound concentration 1000.0 nM
[19] = molecular target: Non-receptor tyrosine-protein kinase TYK2 (Homo sapiens) (UniProt P29597); conditions: Compound concentration 1000.0 nM
[20] = molecular target: TGF-beta receptor type-2 (Homo sapiens) (UniProt P37173); conditions: Compound concentration 1000.0 nM
[21] = molecular target: Casein kinase II subunit alpha (Homo sapiens) (UniProt P68400); conditions: Compound concentration 1000.0 nM
[22] = molecular target: Serine/threonine-protein kinase BRSK1 (Homo sapiens) (UniProt Q8TDC3); conditions: Compound concentration 1000.0 nM
[23] = molecular target: Pyroglutamylated RF-amide peptide receptor (Homo sapiens) (UniProt Q96P65); assay: GPR103 Eurofins-Panlabs selectivity data (BI); conditions: Compound concentration 10.0 uM
[24] = molecular target: T1, Sigma intracellular receptor 2; assay: SIGMA2/R Eurofins-Panlabs selectivity data (BI); conditions: Rattus norvegicus; Compound concentration 10.0 uM
[25] = molecular target: Prostaglandin E2 receptor EP4 subtype (Homo sapiens) (UniProt P35408); assay: EP4/H Eurofins-Panlabs selectivity data (BI); conditions: Compound concentration 10.0 uM
[26] = molecular target: 5-hydroxytryptamine receptor 7 (Homo sapiens) (UniProt P34969); conditions: Compound concentration 10.0 uM
[27] = molecular target: D(2) dopamine receptor (Homo sapiens) (UniProt P14416); assay: D2S/HU Eurofins-Panlabs selectivity data (BI); conditions: Compound concentration 10.0 uM
[28] = molecular target: Histamine H2 receptor (Homo sapiens) (UniProt P25021); conditions: Compound concentration 10.0 uM
Fatty acid synthase [29] = molecular target: T2, Fatty acid synthase; assay: Inhibition of [14C]acetate incorporation into human H1975 cells; type: cell-based, NCI-H1975
[30] = molecular target: Adenosine receptor A1 (Homo sapiens) (UniProt P30542); assay: A1/HU Eurofins-Panlabs selectivity data (BI); conditions: Compound concentration 10.0 uM
[31] = molecular target: Acetylcholine receptor subunit alpha (Homo sapiens) (UniProt P02708); assay: NACH/H Eurofins-Panlabs selectivity data (BI); conditions: Compound concentration 10.0 uM
[32] = molecular target: Muscarinic acetylcholine receptor M3 (Homo sapiens) (UniProt P20309); assay: M3/HU Eurofins-Panlabs selectivity data (BI); conditions: Compound concentration 10.0 uM
[33] = molecular target: Sodium-dependent noradrenaline transporter (Homo sapiens) (UniProt P23975); assay: NETRANS/H Eurofins-Panlabs selectivity data (BI); conditions: Compound concentration 10.0 uM
[34] = molecular target: Alpha-2A adrenergic receptor (Homo sapiens) (UniProt P08913); assay: ALPHA2A/H Eurofins-Panlabs selectivity data (BI); conditions: Compound concentration 10.0 uM
[35] = molecular target: Protein kinase C alpha type (Mus musculus) (UniProt P20444); assay: PHORBOLE/M Eurofins-Panlabs selectivity data (BI); conditions: Compound concentration 10.0 uM
[36] = molecular target: ATP-sensitive inward rectifier potassium channel 1 isoform X1 (Mesocricetus auratus) (UniProt A0A1U8CU73); assay: K+/KATP/HA Eurofins-Panlabs selectivity data (BI); conditions: Compound concentration 10.0 uM
[37] = molecular target: T3, Muscarinic acetylcholine receptor M2 (Homo sapiens) (UniProt P08172); assay: M2/HU Eurofins-Panlabs selectivity data (BI); conditions: Compound concentration 10.0 uM
T3 sequence (whole entry): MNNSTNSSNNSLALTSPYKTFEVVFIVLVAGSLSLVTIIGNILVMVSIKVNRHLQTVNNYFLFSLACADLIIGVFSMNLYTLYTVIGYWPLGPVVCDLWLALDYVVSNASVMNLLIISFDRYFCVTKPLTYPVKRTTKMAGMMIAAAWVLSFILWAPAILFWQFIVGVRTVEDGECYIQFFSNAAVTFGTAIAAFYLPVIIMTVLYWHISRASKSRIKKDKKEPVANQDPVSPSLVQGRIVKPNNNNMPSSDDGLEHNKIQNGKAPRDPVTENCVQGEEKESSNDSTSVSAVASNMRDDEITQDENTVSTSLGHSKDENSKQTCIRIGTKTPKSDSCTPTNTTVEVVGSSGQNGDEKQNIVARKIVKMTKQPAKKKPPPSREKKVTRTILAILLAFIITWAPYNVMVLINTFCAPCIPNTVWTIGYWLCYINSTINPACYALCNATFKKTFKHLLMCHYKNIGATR

[38] = molecular target: Mu-type opioid receptor (Homo sapiens) (UniProt P35372); assay: MU/HU Eurofins-Panlabs selectivity data (BI); conditions: Compound concentration 10.0 uM

T1 sequence (Q5BJF2 whole entry, canonical isoform): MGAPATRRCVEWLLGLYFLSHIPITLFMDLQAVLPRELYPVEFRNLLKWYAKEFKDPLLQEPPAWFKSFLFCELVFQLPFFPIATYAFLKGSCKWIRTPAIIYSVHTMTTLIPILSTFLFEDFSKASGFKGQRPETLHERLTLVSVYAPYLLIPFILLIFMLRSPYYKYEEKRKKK
Tyrosine-protein kinase ABL1 (Homo sapiens), P00519 [F317L], sequence (P00519 whole entry F317L): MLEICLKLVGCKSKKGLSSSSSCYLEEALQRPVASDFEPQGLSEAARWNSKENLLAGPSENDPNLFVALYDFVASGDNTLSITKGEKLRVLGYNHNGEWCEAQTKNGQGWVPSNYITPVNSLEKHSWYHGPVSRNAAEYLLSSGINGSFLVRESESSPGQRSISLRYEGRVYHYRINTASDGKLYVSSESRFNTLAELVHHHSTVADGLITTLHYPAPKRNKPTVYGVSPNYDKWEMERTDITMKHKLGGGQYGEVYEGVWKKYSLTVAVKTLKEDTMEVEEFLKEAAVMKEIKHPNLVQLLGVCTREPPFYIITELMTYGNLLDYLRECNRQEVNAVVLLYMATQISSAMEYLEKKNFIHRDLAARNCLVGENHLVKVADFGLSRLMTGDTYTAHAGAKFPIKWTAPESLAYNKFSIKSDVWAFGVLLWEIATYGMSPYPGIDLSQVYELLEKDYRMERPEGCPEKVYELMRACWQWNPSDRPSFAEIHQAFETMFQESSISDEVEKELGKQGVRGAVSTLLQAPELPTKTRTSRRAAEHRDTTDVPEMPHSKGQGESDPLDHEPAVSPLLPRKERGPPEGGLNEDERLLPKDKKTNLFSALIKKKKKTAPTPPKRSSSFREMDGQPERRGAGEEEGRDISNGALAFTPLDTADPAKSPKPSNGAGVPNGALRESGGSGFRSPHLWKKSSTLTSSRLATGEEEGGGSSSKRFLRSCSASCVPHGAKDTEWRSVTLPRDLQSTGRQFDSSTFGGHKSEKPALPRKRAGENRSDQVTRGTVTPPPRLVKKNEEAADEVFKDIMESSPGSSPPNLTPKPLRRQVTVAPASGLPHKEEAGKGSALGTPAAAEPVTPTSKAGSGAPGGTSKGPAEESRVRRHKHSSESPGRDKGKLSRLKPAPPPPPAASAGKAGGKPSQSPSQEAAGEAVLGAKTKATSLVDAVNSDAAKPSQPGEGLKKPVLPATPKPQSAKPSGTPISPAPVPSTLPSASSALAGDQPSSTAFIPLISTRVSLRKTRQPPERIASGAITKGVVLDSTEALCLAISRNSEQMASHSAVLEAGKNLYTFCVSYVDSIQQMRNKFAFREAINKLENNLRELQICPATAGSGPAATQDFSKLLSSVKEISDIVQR
Serine/threonine-protein kinase tousled-like 2 (Homo sapiens), sequence (Q86UE8 whole entry, looked up): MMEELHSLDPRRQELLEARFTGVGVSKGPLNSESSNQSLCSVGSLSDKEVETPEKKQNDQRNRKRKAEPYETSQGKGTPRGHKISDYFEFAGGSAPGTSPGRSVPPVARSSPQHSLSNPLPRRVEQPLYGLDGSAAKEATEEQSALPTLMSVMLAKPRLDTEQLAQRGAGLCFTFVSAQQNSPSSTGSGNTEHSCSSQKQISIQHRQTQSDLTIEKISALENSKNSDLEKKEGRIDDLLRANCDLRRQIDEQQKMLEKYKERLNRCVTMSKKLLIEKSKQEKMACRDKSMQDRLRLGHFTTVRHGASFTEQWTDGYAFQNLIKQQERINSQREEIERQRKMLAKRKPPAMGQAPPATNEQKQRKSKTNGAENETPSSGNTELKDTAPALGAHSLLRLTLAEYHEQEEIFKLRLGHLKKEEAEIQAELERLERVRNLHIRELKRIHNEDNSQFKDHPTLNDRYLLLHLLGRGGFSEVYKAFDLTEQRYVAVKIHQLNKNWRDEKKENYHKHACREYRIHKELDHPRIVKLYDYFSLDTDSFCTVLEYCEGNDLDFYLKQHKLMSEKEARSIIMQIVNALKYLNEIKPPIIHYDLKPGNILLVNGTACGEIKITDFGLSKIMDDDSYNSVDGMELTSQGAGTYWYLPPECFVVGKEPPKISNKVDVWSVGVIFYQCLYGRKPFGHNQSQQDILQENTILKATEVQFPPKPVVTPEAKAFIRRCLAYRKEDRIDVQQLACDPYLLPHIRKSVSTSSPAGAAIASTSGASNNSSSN
Mitogen-activated protein kinase kinase kinase kinase 1 (Homo sapiens), sequence (Q92918 whole entry, looked up, canonical isoform): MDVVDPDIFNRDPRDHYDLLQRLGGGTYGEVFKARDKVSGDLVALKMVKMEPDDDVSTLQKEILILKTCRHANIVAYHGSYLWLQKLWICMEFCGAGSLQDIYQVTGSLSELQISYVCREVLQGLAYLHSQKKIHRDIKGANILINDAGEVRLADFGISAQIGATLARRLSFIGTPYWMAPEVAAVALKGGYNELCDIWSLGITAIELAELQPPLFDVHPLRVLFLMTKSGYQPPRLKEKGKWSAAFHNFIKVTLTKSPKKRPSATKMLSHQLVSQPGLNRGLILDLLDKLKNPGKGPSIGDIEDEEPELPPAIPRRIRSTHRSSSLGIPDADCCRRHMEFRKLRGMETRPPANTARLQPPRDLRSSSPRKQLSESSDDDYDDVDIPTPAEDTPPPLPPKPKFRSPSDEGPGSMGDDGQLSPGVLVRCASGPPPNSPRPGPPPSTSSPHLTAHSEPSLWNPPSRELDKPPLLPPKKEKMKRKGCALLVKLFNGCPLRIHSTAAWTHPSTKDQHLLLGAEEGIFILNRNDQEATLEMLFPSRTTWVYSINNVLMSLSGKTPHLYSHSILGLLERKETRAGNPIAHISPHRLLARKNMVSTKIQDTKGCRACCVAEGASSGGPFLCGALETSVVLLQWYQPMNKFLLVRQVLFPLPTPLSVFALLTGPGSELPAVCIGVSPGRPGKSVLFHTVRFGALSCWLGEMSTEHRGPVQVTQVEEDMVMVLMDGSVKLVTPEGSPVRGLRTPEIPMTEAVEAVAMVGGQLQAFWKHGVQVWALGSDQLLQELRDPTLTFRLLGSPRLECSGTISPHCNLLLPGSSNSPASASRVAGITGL
TGF-beta receptor type-2 (Homo sapiens), sequence (P37173 whole entry): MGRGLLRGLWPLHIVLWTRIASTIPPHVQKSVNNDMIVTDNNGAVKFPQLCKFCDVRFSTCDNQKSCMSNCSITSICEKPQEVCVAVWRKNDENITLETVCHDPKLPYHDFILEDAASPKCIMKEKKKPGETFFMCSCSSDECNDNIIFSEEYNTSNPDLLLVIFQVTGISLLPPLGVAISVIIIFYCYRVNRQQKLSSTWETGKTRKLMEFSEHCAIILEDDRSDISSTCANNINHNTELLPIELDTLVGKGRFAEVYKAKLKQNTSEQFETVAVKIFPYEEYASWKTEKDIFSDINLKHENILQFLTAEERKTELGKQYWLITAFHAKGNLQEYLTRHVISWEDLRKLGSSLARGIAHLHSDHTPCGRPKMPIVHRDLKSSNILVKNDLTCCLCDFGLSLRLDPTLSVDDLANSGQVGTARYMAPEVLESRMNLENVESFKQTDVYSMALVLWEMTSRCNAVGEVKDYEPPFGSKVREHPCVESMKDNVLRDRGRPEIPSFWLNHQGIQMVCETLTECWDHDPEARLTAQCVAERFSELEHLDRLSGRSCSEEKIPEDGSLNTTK
Non-receptor tyrosine-protein kinase TYK2 (Homo sapiens), sequence (P29597 whole entry): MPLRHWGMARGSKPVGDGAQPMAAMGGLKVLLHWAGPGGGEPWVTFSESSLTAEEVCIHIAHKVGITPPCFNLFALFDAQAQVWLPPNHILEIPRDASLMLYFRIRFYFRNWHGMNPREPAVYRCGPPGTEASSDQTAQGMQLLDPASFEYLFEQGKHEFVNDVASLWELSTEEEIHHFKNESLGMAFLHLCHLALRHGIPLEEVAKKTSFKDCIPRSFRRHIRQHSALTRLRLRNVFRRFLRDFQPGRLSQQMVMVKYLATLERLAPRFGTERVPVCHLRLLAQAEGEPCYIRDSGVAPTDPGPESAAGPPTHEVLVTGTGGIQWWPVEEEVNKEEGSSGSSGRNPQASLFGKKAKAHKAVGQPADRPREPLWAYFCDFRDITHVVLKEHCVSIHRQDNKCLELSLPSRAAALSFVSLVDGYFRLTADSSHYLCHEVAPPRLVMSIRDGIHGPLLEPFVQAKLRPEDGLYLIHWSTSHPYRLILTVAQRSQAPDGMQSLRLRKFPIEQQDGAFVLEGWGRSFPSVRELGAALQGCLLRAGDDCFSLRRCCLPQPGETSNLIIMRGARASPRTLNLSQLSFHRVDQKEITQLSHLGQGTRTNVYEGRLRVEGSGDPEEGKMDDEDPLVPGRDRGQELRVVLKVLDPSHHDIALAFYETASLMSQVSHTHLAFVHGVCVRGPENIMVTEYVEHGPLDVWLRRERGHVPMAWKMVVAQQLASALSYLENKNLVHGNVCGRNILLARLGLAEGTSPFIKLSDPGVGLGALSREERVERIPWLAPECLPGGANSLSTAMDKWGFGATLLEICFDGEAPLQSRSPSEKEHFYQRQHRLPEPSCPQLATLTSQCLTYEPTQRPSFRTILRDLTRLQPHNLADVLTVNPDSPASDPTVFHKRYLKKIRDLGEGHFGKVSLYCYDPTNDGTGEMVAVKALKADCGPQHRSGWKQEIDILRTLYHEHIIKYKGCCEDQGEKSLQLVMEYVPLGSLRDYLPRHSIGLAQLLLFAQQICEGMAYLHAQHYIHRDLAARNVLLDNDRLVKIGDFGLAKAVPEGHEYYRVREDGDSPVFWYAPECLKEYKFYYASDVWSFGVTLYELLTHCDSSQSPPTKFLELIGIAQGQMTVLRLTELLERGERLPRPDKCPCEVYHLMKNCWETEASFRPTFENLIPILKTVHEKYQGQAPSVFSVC
Casein kinase II subunit alpha (Homo sapiens), sequence (P68400 whole entry, looked up): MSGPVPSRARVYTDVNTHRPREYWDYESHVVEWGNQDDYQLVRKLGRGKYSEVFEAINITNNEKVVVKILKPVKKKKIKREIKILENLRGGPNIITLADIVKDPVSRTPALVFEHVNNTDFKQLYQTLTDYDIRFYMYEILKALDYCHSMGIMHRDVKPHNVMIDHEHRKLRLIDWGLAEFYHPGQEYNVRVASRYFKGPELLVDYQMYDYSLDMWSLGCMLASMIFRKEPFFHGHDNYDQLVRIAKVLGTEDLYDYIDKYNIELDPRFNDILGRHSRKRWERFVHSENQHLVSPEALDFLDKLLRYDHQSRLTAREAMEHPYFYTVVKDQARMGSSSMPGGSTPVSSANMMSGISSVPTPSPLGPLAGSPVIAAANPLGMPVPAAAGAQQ

## CCC(=O)N[C@@H]1CC[C@H](C(=O)N(C)c2ccc(-c3nc4ccccc4o3)cc2)C1 [BI 99990]
[1]
  residual activity: 100%
[2]
  residual activity: 100%
[3]
  residual activity: 86%
[4]
  residual activity: 99%
[5]
  residual activity: 100%
[6]
  inhibition: -8.27%
[7]
  residual activity: 96%
[8]
  residual activity: 93%
[9]
  residual activity: 94%
[10]
  inhibition: 40.3%
[11]
  residual activity: 100%
[12]
  residual activity: 100%
[13]
  residual activity: 72%
[14]
  residual activity: 100%
[15]
  inhibition: 62.9%
[16]
  residual activity: 100%
Fatty acid synthase [17]
  IC50: > 3 µM (not active)
[18]
  residual activity: 100%
[19]
  residual activity: 100%
[20]
  residual activity: 100%
[21]
  residual activity: 98%
[22]
  residual activity: 100%

## CCC(=O)N[C@H]1CC[C@@H](C(=O)N(C)c2ccc(-c3nc4ccccc4o3)cc2)C1 [BI 99179]
[1]
  residual activity: 100%
[23]
  residual activity: 101%
[24]
  residual activity: 87%
[2]
  residual activity: 100%
[25]
  residual activity: 91%
[3]
  residual activity: 72%
[4]
  residual activity: 86%
[26]
  inhibition: -6.53%
[27]
  residual activity: 95%
[28]
  inhibition: -1.25%
Fatty acid synthase [29]
  IC50: 0.18 µM (active)
[6]
  inhibition: 6.85%
[30]
  residual activity: 107%
[31]
  residual activity: 113%
[32]
  residual activity: 106%
[33]
  residual activity: 91%
[8]
  residual activity: 87%
[34]
  residual activity: 98%
[35]
  residual activity: 94%
[9]
  residual activity: 100%
[10]
  inhibition: 23.2%
[36]
  residual activity: 88%
[37]
  residual activity: 90%
[11]
  residual activity: 100%
[12]
  residual activity: 66%
[13]
  residual activity: 50%
[14]
  residual activity: 79%
[15]
  inhibition: 33.6%
[16]
  residual activity: 91%
[18]
  residual activity: 100%
[19]
  residual activity: 95%
[20]
  residual activity: 89%
[21]
  residual activity: 74%
[38]
  residual activity: 100%
